The test system of the test is human embryonic stem cell derived neural stem cells (NSCs). Description: Neural stem cell proliferation assay (neurogenesis assay). It is filed as cell-based. The settings on record: Homo sapiens, Neural stem cell, 96 h, concentration at which 150% activity of control (100%) is reached, ATP levels (CellTiterGlo) after 4 days incubation. How it is done:
Neural Stem Cell Proliferation Assay
Neurogenic properties of small molecules are determined based on the proliferation of human embryonic stem cell derived neural stem cells (NSCs) which were derived via a dual smad inhibition as previously described (Chambers, S. M., et al., Highly efficient neural conversion of human ES and iPS cells by dual inhibition of SMAD signaling, Nature biotechnology, 2009. 27 (3): p. 275-80.)
Compounds respond is measured by the increase in cells based on ATP levels (Promega:CellTiterGlo®) after an incubation period of 4 days.
NSCs are thawed and expanded over 3 passages. On the 14th day, NSCs are seeded in Polyornithin/Laminin coated 384 well plates at a cell density of 21,000 cells/cm^2 in a media volume of 38 μl.
4 hours after cell seeding, compound solutions are added at a volume of 2 μl. Stock solutions of the compounds (water, 5% DMSO) are diluted to obtain a dose response (11 points, dilution factor is 2), ranging from 8 μM to 8 nM. Controls are run to consistently determine the neurogenic properties of the cells:
Negative (neutral) control is cell culture Media (final DMSO concentration: 0.25%).
Positive controls are: • 1. cell culture Media+100 ng/ml FGF2 (final DMSO concentration: 0.1%) • 2. cell culture Media+20 ng/ml EGF (final DMSO concentration: 0.1%) • 3. cell culture Media+100 ng/ml Wnt3a (final DMSO concentration: 0.1%)
After 4 days incubation at 37° C., 5% CO2, the amount of ATP per well is quantified. The ATP concentration is proportional to the cell number. ATP is quantified by using the Promega CellTiterGlo® kit. The CellTiterGlo® reagents contain a cell lysis buffer, a thermo stable luciferase (UltraGlo™ recombinant luciferase), magnesium and luciferin. Luciferin reacts with ATP producing oxyluciferin, AMP and light. The luminescence signal is proportional to the ATP content.
The value of negative (neutral) control is determined for each assay plate by taking the average of 16 negative control wells. The neurogenic compound response is calculated for each compound as (compound/Negative Control)*100.
The values of EC150 from the dose response curve are determined for each test compound. The EC150 is the compound concentration at which 150% activity of control (100%) is reached.
On the technique in general: Cellular ATP, detected with luciferase, serves as a proxy for viable cell number.

As for `CC(NC(=O)c1ccc2cncc(-c3cccc(Cl)n3)c2n1)C(C)(C)O` (centres unmarked) [Example 175, 8-(6-Chloropyridin-2-yl)-N-(3-hydroxy-3-methylbutan-2-yl)-1,6-naphthyridine-2-carboxamide], the EC (150% of control) (Table 1, novel compounds) is 1.03 µM.

`COc1ccc(-c2cncc3ccc(C(N)=O)nc23)cc1` [Example 21, 8-(4-Methoxyphenyl)-1,6-naphthyridine-2-carboxamide] displayed an EC (150% of control) (Table 1, novel compounds) of 0.01 µM.

`O=C(NC1CCOC1)c1ccc2cncc(-c3ccc(Cl)cc3)c2n1` (centres unmarked) [Example 60, 8-(4-Chlorophenyl)-N-(tetrahydrofuran-3-yl)-1,6-naphthyridine-2-carboxamide] returned an EC (150% of control) (Table 1, novel compounds) of 0.15 µM.

For the setting “Table 1, novel compounds”, `O=C(NN1CCCCC1)c1ccc2cncc(-c3ccc(Cl)cc3)c2n1` [Example 59, 8-(4-Chlorophenyl)-N-(piperidin-1-yl)-1,6-naphthyridine-2-carboxamide] displayed an EC (150% of control) of 1.48 µM.

Consider `COc1ccc(-c2cncc3ccc(C(=O)NCc4ccccn4)nc23)cc1` [Example 23, 8-(4-Methoxyphenyl)-N-(pyridin-2-ylmethyl)-1,6-naphthyridine-2-carboxamide], for which the EC (150% of control) (Table 1, novel compounds) was determined as 0.03 µM.

In turn, `O=C(NCc1ccccc1)c1ccc2cncc(-c3cccnc3)c2n1` [Example 17, N-Benzyl-8-(pyridin-3-yl)-1,6-naphthyridine-2-carboxamide] showed an EC (150% of control) (Table 1, novel compounds) of 0.11 µM.

For the compound `CC(NC(=O)c1ccc2cncc(-c3cccc(OCC(F)(F)F)c3)c2n1)C(C)(C)O` (centres unmarked) [Example 164, N-(3-Hydroxy-3-methylbutan-2-yl)-8-(3-(2,2,2-trifluoroethoxyl)phenyl)-1,6-naphthyridine-2-carboxamide], the EC (150% of control) (Table 1, novel compounds) worked out at 0.76 µM.

Where the note is “Table 1, novel compounds”, `COc1ccc(-c2cncc3ccc(C(=O)N(C)Cc4ccccc4)nc23)cc1` [Example 33, N-Benzyl-8-(4-methoxyphenyl)-N-methyl-1,6-naphthyridine-2-carboxamide] returned an EC (150% of control) of 0.22 µM.

Consider `COc1ccc(-c2cncc3ccc(C(=O)NCc4ccc(C(F)(F)F)nc4)nc23)cc1` [Example 186, 8-(4-Methoxy-phenyl)-[1,6]naphthyridine-2-carboxylic acid (6-trifluoromethyl-pyridin-3-ylmethyl)-amide], for which the EC (150% of control) (Table 2, known compounds) amounted to 0.67 µM.

`CC(NC(=O)c1ccc2cncc(-c3cc(F)c(F)c(F)c3)c2n1)C(C)(C)O` (centres unmarked) [Example 173, N-(3-Hydroxy-3-methylbutan-2-yl)-8-(3,4,5-trifluorophenyl)-1,6-naphthyridine-2-carboxamide] yielded an EC (150% of control) (Table 1, novel compounds) of 0.9 µM.

Turning to `O=C(NCCCn1ccnc1)c1ccc2cncc(-c3ccccc3Cl)c2n1` [Example 40, N-(3-(1H-Imidazol-1-yl)propyl)-8-(2-chlorophenyl)-1,6-naphthyridine-2-carboxamide], the EC (150% of control) (Table 1, novel compounds) worked out at 0.69 µM.

Compound `O=C(c1ccc2cncc(-c3ccc(Cl)cc3)c2n1)N1CCS(=O)(=O)CC1` [Example 74, [8-(4-Chloro-phenyl)-[1,6]naphthyridin-2-yl]-(1,1-dioxo-thiomorpholin-4-yl)-methanone] showed an EC (150% of control) (Table 1, novel compounds) of 1.68 µM.

On to `COCCNC(=O)c1ccc2cncc(-c3ccc(OC)cc3)c2n1` [Example 2, N-(2-Methoxyethyl)-8-(4-methoxyphenyl)-1,6-naphthyridine-2-carboxamide], for which, under “Table 1, novel compounds”, the EC (150% of control) stood at 0.03 µM.

Compound `Cc1nc(C)c(-c2cncc3ccc(C(N)=O)nc23)s1` [Example 102, 8-(2,4-Dimethylthiazol-5-yl)-1,6-naphthyridine-2-carboxamide] returned an EC (150% of control) (Table 1, novel compounds) of 0.14 µM.

Regarding `O=C(NCC(F)(F)F)c1ccc2cncc(-c3ccc(F)c(F)c3)c2n1` [Example 127, 8-(3,4-Difluorophenyl)-N-(2,2,2-trifluoroethyl)-1,6-naphthyridine-2-carboxamide], the EC (150% of control) (Table 1, novel compounds) was 0.23 µM.

Where the note is “Table 2, known compounds”, `O=C(NCc1ccc(Cl)cc1)c1ccc2cncc(-c3ccsc3)c2n1` [Example 201, 8-Thiophen-3-yl-[1,6]naphthyridine-2-carboxylic acid 4-chloro-benzylamide] displayed an EC (150% of control) of 0.8 µM.

Where the note is “Table 1, novel compounds”, `COCCNC(=O)c1ccc2cncc(-c3cccc(Cl)c3)c2n1` [Example 7, 8-(3-Chlorophenyl)-N-(2-methoxyethyl)-1,6-naphthyridine-2-carboxamide] returned an EC (150% of control) of 0.32 µM.

Turning to `N#CC1(NC(=O)c2ccc3cncc(-c4ccc(Cl)cc4)c3n2)CC1` [Example 76, 8-(4-Chlorophenyl)-N-(1-cyanocyclopropyl)-1,6-naphthyridine-2-carboxamide], the EC (150% of control) (Table 1, novel compounds) turned out to be 1.84 µM.

In turn, `NCc1ccc(-c2cncc3ccc(C(N)=O)nc23)cc1` [Example 156, 8-(4-(Aminomethyl)phenyl)-1,6-naphthyridine-2-carboxamide] came in with an EC (150% of control) (Table 1, novel compounds) of 0.31 µM.

Regarding `Cc1cc2cncc(-c3ccc(OC(F)(F)F)cc3)c2nc1C(N)=O` [Example 154, 3-Methyl-8-(4-(trifluoromethoxy)phenyl)-1,6-naphthyridine-2-carboxamide], the EC (150% of control) (Table 1, novel compounds) was found to be 2.19 µM.

Under “Table 2, known compounds”, `O=C(NCc1ccccc1)c1ccc2cncc(-c3ccccc3)c2n1` [Example 191, 8-Phenyl-[1,6]naphthyridine-2-carboxylic acid benzylamide] showed an EC (150% of control) of 0.44 µM.

As for `Cc1cnc(CNC(=O)c2ccc3cncc(-c4ccccc4)c3n2)cn1` [Example 190, 8-Phenyl-[1,6]naphthyridine-2-carboxylic acid (5-methyl-pyrazin-2-ylmethyl)-amide], the EC (150% of control) (Table 2, known compounds) turned out to be 0.5 µM.

Compound `COc1ccccc1CNC(=O)c1ccc2cncc(-c3ccc(Cl)cc3)c2n1` [Example 47, 8-(4-Chlorophenyl)-N-(2-methoxybenzyl)-1,6-naphthyridine-2-carboxamide] had an EC (150% of control) (Table 1, novel compounds) of 0.13 µM.

With `CS(=O)(=O)CCNC(=O)c1ccc2cncc(-c3cccc(F)c3)c2n1` [Example 134, 8-(3-Fluorophenyl)-N-(2-(methylsulfonyl)ethyl)-1,6-naphthyridine-2-carboxamide], the EC (150% of control) (Table 1, novel compounds) was determined as 0.22 µM.

Take `COCCNC(=O)c1ccc2cncc(-c3ccc(Cl)cc3)c2n1` [Example 6, 8-(4-Chlorophenyl)-N-(2-methoxyethyl)-1,6-naphthyridine-2-carboxamide]: the EC (150% of control) (Table 1, novel compounds) turned out to be 0.02 µM.

Under “Table 1, novel compounds”, `CCCCCCNC(=O)Cc1ccc(-c2cncc3ccc(C(N)=O)nc23)cc1` [Example 150, 8-(4-(2-(Hexylamino)-2-oxoethyl)phenyl)-1,6-naphthyridine-2-carboxamide] showed an EC (150% of control) of 0.04 µM.

`CC(C)Oc1ccc(-c2cncc3ccc(C(N)=O)nc23)cc1` [Example 105, 8-(4-Isopropoxyphenyl)-1,6-naphthyridine-2-carboxamide] showed an EC (150% of control) (Table 1, novel compounds) of 0.01 µM.

For the setting “Table 1, novel compounds”, `O=C(NCC1CC1)c1ccc2cncc(-c3ccc(Cl)cc3)c2n1` [Example 67, 8-(4-Chlorophenyl)-N-(cyclopropylmethyl)-1,6-naphthyridine-2-carboxamide] gave an EC (150% of control) of 0.01 µM.

Under “Table 1, novel compounds”, `O=C(NCC(F)(F)F)c1ccc2cncc(-c3ccc(Cl)cc3)c2n1` [Example 63, 8-(4-Chlorophenyl)-N-(2,2,2-trifluoroethyl)-1,6-naphthyridine-2-carboxamide] yielded an EC (150% of control) of 0.23 µM.

Regarding `COc1cccc(-c2cncc3ccc(C(=O)NCc4ccncc4)nc23)c1` [Example 26, 8-(3-Methoxyphenyl)-N-(pyridin-4-ylmethyl)-1,6-naphthyridine-2-carboxamide], the EC (150% of control) (Table 1, novel compounds) was found to be 0.28 µM.

For `COc1ccccc1-c1cncc2ccc(C(=O)NCc3ccccc3)nc12` [Example 12, N-Benzyl-8-(2-methoxyphenyl)-1,6-naphthyridine-2-carboxamide], the EC (150% of control) (Table 1, novel compounds) was 0.17 µM.

As for `CCCCCCNC(=O)c1ccc(-c2cncc3ccc(C(N)=O)nc23)cc1` [Example 147, 8-(4-(Hexylcarbamoyl)phenyl)-1,6-naphthyridine-2-carboxamide], under “Table 1, novel compounds”, the EC (150% of control) is 0.09 µM.

For the setting “Table 2, known compounds”, `COc1ccc(-c2cncc3ccc(C(=O)N4CCN(c5ccccn5)CC4)nc23)cc1` [Example 185, [8-(4-Methoxy-phenyl)-[1,6]naphthyridin-2-yl]-(4-pyridin-2-yl-piperazin-1-yl)-methanone] yielded an EC (150% of control) of 0.8 µM.

Where the note is “Table 1, novel compounds”, `O=C(NCc1cccnc1)c1ccc2cncc(-c3ccc(Cl)cc3)c2n1` [Example 45, 8-(4-Chlorophenyl)-N-(pyridin-3-ylmethyl)-1,6-naphthyridine-2-carboxamide] showed an EC (150% of control) of 0.02 µM.

With `CS(=O)(=O)CCNC(=O)c1ccc2cncc(-c3cc(F)ccc3F)c2n1` [Example 138, 8-(2,5-Difluorophenyl)-N-(2-(methylsulfonyl)ethyl)-1,6-naphthyridine-2-carboxamide], the EC (150% of control) (Table 1, novel compounds) worked out at 0.26 µM.
